Test results as given in patent US6914045B2, “Glycopeptide antibiotics” (Wyeth Holdings Corporation, priority 2001, dated 2005).
In brackets after ≈: the same amount, converted by molar mass.

Tests used:
Test in all cases: in vitro antibacterial evaluation, MIC by broth dilution
Format in all cases: cell-based
Enterococcus sp. = conditions: broth dilution, 18 hours at 35° C.
Description: (§1) Methods for in vitro Antibacterial Evaluation (Table 1)
(§2) The minimum inhibitory concentration (MIC), the lowest concentration of the antibiotic which inhibits growth of the test organism, is determined by the broth dilution method using Muller-Hinton II […] (Baltimore Biological Laboratories) following the recommendations of the National Committee for Clinical Laboratory Standards [Methods for dilution antimicrobial susceptibility tests for bacteria that grow aerobically, approved standard M7-A2, National Committee for Clinical Laboratory Standards, Villanova, Pa.].
(§3) An inoculum level of 5×10^5 CFU/mL, and a range of antibiotic concentrations (64-0.06 μg/mL) is used. […] The test organisms include a spectrum of Gram-positive bacteria comprised of Staphylococcus sp., Streptococcus sp. and Enterococcus sp. These organisms include recent clinical isolates that are resistant to methicillin, penicillin and/or vancomycin.

Streptococcus sp. = conditions: broth dilution, 18 hours at 35° C.
Description: as §1, §2, §3

Staphylococcus sp. = conditions: broth dilution, 18 hours at 35° C.; for MIC Staphylococcus aureus (ATCC 29213): strain ATCC 29213; for MIC Staphylococcus aureus (GC 1131): strain GC 1131; for MIC Staphylococcus aureus (GC 3051): strain GC 3051; for MIC Staphylococcus aureus (GC 3053): strain GC 3053; for MIC Staphylococcus aureus (GC 4541): strain GC 4541; for MIC Staphylococcus aureus (GC 4542): strain GC 4542; for MIC Staphylococcus aureus-SMITH (GC 4543): strain GC 4543; for MIC Staphylococcus aureus (GC 4544): strain GC 4544; for MIC Staphylococcus aureus (GC 4545): strain GC 4545; for MIC Staphylococcus haemolyticus (GC 4546): strain GC 4546; for MIC Coagulase Negative Staphylococcus (GC 4547): strain GC 4547; for MIC Coagulase Negative Staphylococcus (GC 4548): strain GC 4548; for MIC Coagulase Negative Staphylococcus (GC 4549): strain GC 4549; for MIC Coagulase Negative Staphylococcus (GC 4551): strain GC 4551; for MIC Coagulase Negative Staphylococcus (GC 6257): strain GC 6257
Description: as §1, §2, §3

Escherichia coli = conditions: 18 hours at 35° C.
Outline: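 MIC is the lowest antibiotic concentration (tested 64-0.06 μg/mL) preventing growth of a 5×10^5 CFU/mL inoculum. Determined by broth dilution in Mueller-Hinton II medium following NCCLS standard M7-A2.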

CC(c1ccccc1)C1NC(=O)CNC(=O)C(CO)NC(=O)C(C(O)C2CNC(=N)N2C2OC(CO)C(O)C(O)C2O)NC(=O)C(C(O)C2CNC(=N)N2)NC(=O)C(Cc2ccc3oc(-c4ccoc4)nc3c2)NC1=O (stereo not drawn) [Example 38, Cyclo[3-[2-(3-furyl)-1,3-benzoxazol-5-yl]alanyl-3-(2-iminoimidazolidin-4-yl)seryl-3-(3-hexopyranosyl-2-iminoimidazolidin-4-yl)serylserylglycyl-β-methylphenylalanyl]]
MIC Enterococcus faecalis (ATCC 29212) (Enterococcus sp.; strain ATCC 29212): 128 µg/mL (≈ 121 µM)
MIC Enterococcus faecalis (GC 2242) (Enterococcus sp.; strain GC 2242): 128 µg/mL (≈ 121 µM)
MIC Enterococcus faecium (GC 2243) (Enterococcus sp.; strain GC 2243): 128 µg/mL (≈ 121 µM)
MIC Enterococcus faecalis (GC 2691) (Enterococcus sp.; strain GC 2691): 128 µg/mL (≈ 121 µM)
MIC Enterococcus faecalis (GC 3059) (Enterococcus sp.; strain GC 3059): >128 µg/mL
MIC Enterococcus faecalis (GC 4552) (Enterococcus sp.; strain GC 4552): 128 µg/mL (≈ 121 µM)
MIC Enterococcus faecalis (GC 4553) (Enterococcus sp.; strain GC 4553): 64 µg/mL (≈ 60.3 µM)
MIC Enterococcus faecalis (GC 4554) (Enterococcus sp.; strain GC 4554): 128 µg/mL (≈ 121 µM)
MIC Enterococcus faecium (GC 4556) (Enterococcus sp.; strain GC 4556): 128 µg/mL (≈ 121 µM)
MIC Enterococcus faecium (GC 4557) (Enterococcus sp.; strain GC 4557): 32 µg/mL (≈ 30.1 µM)
MIC Enterococcus avium (GC 4558) (Enterococcus sp.; strain GC 4558): 64 µg/mL (≈ 60.3 µM)
MIC Enterococcus faecalis (GC 6189) (Enterococcus sp.; strain GC 6189): 128 µg/mL (≈ 121 µM)
MIC Streptococcus pneumoniae (ATCC 6301) (Streptococcus sp.; strain ATCC 6301): 32 µg/mL (≈ 30.1 µM)
MIC Streptococcus pneumoniae (GC 1894) (Streptococcus sp.; strain GC 1894): 32 µg/mL (≈ 30.1 µM)
MIC Streptococcus pyogenes (GC 4563) (Streptococcus sp.; strain GC 4563): 32 µg/mL (≈ 30.1 µM)
MIC Streptococcus agalactiae (GC 4564) (Streptococcus sp.; strain GC 4564): 32 µg/mL (≈ 30.1 µM)
MIC Streptococcus pneumoniae (GC 4565) (Streptococcus sp.; strain GC 4565): 64 µg/mL (≈ 60.3 µM)
MIC Staphylococcus aureus (ATCC 29213) (Staphylococcus sp.): 64 µg/mL (≈ 60.3 µM)
MIC Staphylococcus aureus (GC 1131) (Staphylococcus sp.): 32 µg/mL (≈ 30.1 µM)
MIC Staphylococcus aureus (GC 3051) (Staphylococcus sp.): 64 µg/mL (≈ 60.3 µM)
MIC Staphylococcus aureus (GC 3053) (Staphylococcus sp.): 64 µg/mL (≈ 60.3 µM)
MIC Staphylococcus aureus (GC 4541) (Staphylococcus sp.): 64 µg/mL (≈ 60.3 µM)
MIC Staphylococcus aureus (GC 4542) (Staphylococcus sp.): 64 µg/mL (≈ 60.3 µM)
MIC Staphylococcus aureus-SMITH (GC 4543) (Staphylococcus sp.): 64 µg/mL (≈ 60.3 µM)
MIC Staphylococcus aureus (GC 4544) (Staphylococcus sp.): 64 µg/mL (≈ 60.3 µM)
MIC Staphylococcus aureus (GC 4545) (Staphylococcus sp.): 32 µg/mL (≈ 30.1 µM)
MIC Staphylococcus haemolyticus (GC 4546) (Staphylococcus sp.): 16 µg/mL (≈ 15.1 µM)
MIC Coagulase Negative Staphylococcus (GC 4547) (Staphylococcus sp.): 32 µg/mL (≈ 30.1 µM)
MIC Coagulase Negative Staphylococcus (GC 4548) (Staphylococcus sp.): 32 µg/mL (≈ 30.1 µM)
MIC Coagulase Negative Staphylococcus (GC 4549) (Staphylococcus sp.): 64 µg/mL (≈ 60.3 µM)
MIC Coagulase Negative Staphylococcus (GC 4551) (Staphylococcus sp.): 64 µg/mL (≈ 60.3 µM)
MIC Coagulase Negative Staphylococcus (GC 6257) (Staphylococcus sp.): 16 µg/mL (≈ 15.1 µM)
MIC Escherichia coli (ATCC 25922) (Escherichia coli; strain ATCC 25922, broth dilution): 64 µg/mL (≈ 60.3 µM)
MIC Escherichia coli (GC 4559) (Escherichia coli; strain GC 4559, broth dilution): 64 µg/mL (≈ 60.3 µM)
MIC Escherichia coli (GC 4560) (Escherichia coli; strain GC 4560, broth dilution): 32 µg/mL (≈ 30.1 µM)

CC(C)=CCCC(C)=CCCC(C)=CCOc1cccc(C2OCC3OC(OC4C(CO)OC(Oc5ccc(CC6NC(=O)C(C(C)c7ccccc7)NC(=O)CNC(=O)C(CO)NC(=O)C(C(O)C7CNC(=N)N7C7OC(CO)C(O)C(O)C7O)NC(=O)C(C(O)C7CNC(=N)N7)NC6=O)cc5)C(O)C4O)C(O)C(O)C3O2)c1 (stereo not shown) [Example 185]
MIC Enterococcus avium (GC 4558) (Enterococcus sp.): 64 µg/mL (≈ 39.9 µM)
MIC Enterococcus faecalis (ATCC 29212) (Enterococcus sp.): >64 µg/mL
MIC Enterococcus faecalis (GC 2242) (Enterococcus sp.): >64 µg/mL
MIC Enterococcus faecalis (GC 2691) (Enterococcus sp.): >64 µg/mL
MIC Enterococcus faecalis (GC 3059) (Enterococcus sp.): >64 µg/mL
MIC Enterococcus faecalis (GC 4552) (Enterococcus sp.): >64 µg/mL
MIC Enterococcus faecalis (GC 4553) (Enterococcus sp.): 32 µg/mL (≈ 20 µM)
MIC Enterococcus faecalis (GC 4554) (Enterococcus sp.): >64 µg/mL
MIC Enterococcus faecalis (GC 6189) (Enterococcus sp.): >64 µg/mL
MIC Enterococcus faecium (GC 2243) (Enterococcus sp.): 32 µg/mL (≈ 20 µM)
MIC Enterococcus faecium (GC 4556) (Enterococcus sp.): >64 µg/mL
MIC Enterococcus faecium (GC 4557) (Enterococcus sp.): >64 µg/mL
MIC Enterococcus faecalis (ATCC 29212) (Enterococcus sp.; inoculum 5×10^5 CFU/mL, strain ATCC 29212): >64 µg/mL
MIC Enterococcus faecalis (GC 2242) (Enterococcus sp.; inoculum 5×10^5 CFU/mL, strain GC 2242): >64 µg/mL
MIC Enterococcus faecium (GC 2243) (Enterococcus sp.; inoculum 5×10^5 CFU/mL, strain GC 2243): 32 µg/mL (≈ 20 µM)
MIC Enterococcus faecalis (GC 2691) (Enterococcus sp.; inoculum 5×10^5 CFU/mL, strain GC 2691): >64 µg/mL
MIC Enterococcus faecalis (GC 3059) (Enterococcus sp.; inoculum 5×10^5 CFU/mL, strain GC 3059): >64 µg/mL
MIC Enterococcus faecalis (GC 4552) (Enterococcus sp.; inoculum 5×10^5 CFU/mL, strain GC 4552): >64 µg/mL
MIC Enterococcus faecalis (GC 4553) (Enterococcus sp.; inoculum 5×10^5 CFU/mL, strain GC 4553): 32 µg/mL (≈ 20 µM)
MIC Enterococcus faecalis (GC 4554) (Enterococcus sp.; inoculum 5×10^5 CFU/mL, strain GC 4554): >64 µg/mL
MIC Enterococcus faecium (GC 4556) (Enterococcus sp.; inoculum 5×10^5 CFU/mL, strain GC 4556): >64 µg/mL
MIC Enterococcus faecium (GC 4557) (Enterococcus sp.; inoculum 5×10^5 CFU/mL, strain GC 4557): >64 µg/mL
MIC Enterococcus avium (GC 4558) (Enterococcus sp.; inoculum 5×10^5 CFU/mL, strain GC 4558): 64 µg/mL (≈ 39.9 µM)
MIC Enterococcus faecalis (GC 6189) (Enterococcus sp.; inoculum 5×10^5 CFU/mL, strain GC 6189): >64 µg/mL
MIC Streptococcus agalactiae (GC 4564) (Streptococcus sp.): 1 µg/mL (≈ 0.624 µM)
MIC Streptococcus pneumoniae (ATCC 6301) (Streptococcus sp.): 0.12 µg/mL (≈ 0.0748 µM)
MIC Streptococcus pneumoniae (GC 1894) (Streptococcus sp.): <0.06 µg/mL
MIC Streptococcus pneumoniae (GC 4565) (Streptococcus sp.): <0.06 µg/mL
MIC Streptococcus pyogenes (GC 4563) (Streptococcus sp.): 16 µg/mL (≈ 9.98 µM)
MIC Streptococcus pneumoniae (ATCC 6301) (Streptococcus sp.; inoculum 5×10^5 CFU/mL, strain ATCC 6301): 0.12 µg/mL (≈ 0.0748 µM)
MIC Streptococcus pneumoniae (GC 1894) (Streptococcus sp.; inoculum 5×10^5 CFU/mL, strain GC 1894): <0.06 µg/mL
MIC Streptococcus pyogenes (GC 4563) (Streptococcus sp.; inoculum 5×10^5 CFU/mL, strain GC 4563): 16 µg/mL (≈ 9.98 µM)
MIC Streptococcus agalactiae (GC 4564) (Streptococcus sp.; inoculum 5×10^5 CFU/mL, strain GC 4564): 1 µg/mL (≈ 0.624 µM)
MIC Streptococcus pneumoniae (GC 4565) (Streptococcus sp.; inoculum 5×10^5 CFU/mL, strain GC 4565): <0.06 µg/mL
MIC Staphylococcus aureus (GC 1131) (Staphylococcus sp.; inoculum 5×10^5 CFU/mL): >64 µg/mL
MIC Staphylococcus aureus (ATCC 29213) (Staphylococcus sp.): >64 µg/mL
MIC Staphylococcus aureus (GC 1131) (Staphylococcus sp.): >64 µg/mL
MIC Staphylococcus aureus (GC 3051) (Staphylococcus sp.): >64 µg/mL
MIC Staphylococcus aureus (GC 3053) (Staphylococcus sp.): >64 µg/mL
MIC Staphylococcus aureus (GC 4541) (Staphylococcus sp.): >64 µg/mL
MIC Staphylococcus aureus (GC 4542) (Staphylococcus sp.): >64 µg/mL
MIC Staphylococcus aureus-SMITH (GC 4543) (Staphylococcus sp.): >64 µg/mL
MIC Staphylococcus aureus (GC 4544) (Staphylococcus sp.): >64 µg/mL
MIC Staphylococcus aureus (GC 4545) (Staphylococcus sp.): >64 µg/mL
MIC Staphylococcus haemolyticus (GC 4546) (Staphylococcus sp.): >64 µg/mL
MIC Coagulase Negative Staphylococcus (GC 4547) (Staphylococcus sp.): >64 µg/mL
MIC Coagulase Negative Staphylococcus (GC 4548) (Staphylococcus sp.): >64 µg/mL
MIC Coagulase Negative Staphylococcus (GC 4549) (Staphylococcus sp.): >64 µg/mL
MIC Coagulase Negative Staphylococcus (GC 4551) (Staphylococcus sp.): >64 µg/mL
MIC Coagulase Negative Staphylococcus (GC 6257) (Staphylococcus sp.): >64 µg/mL
MIC Escherichia coli (ATCC 25922) (Escherichia coli): >64 µg/mL
MIC Escherichia coli (GC 4559) (Escherichia coli): >64 µg/mL
MIC Escherichia coli (GC 4560) (Escherichia coli): >64 µg/mL
